This is an account of results in ChEMBL document CHEMBL1145851, “Novel substituted pyridinyl imidazoles as potent anticytokine agents with low activity against hepatic cytochrome P450 enzymes” (J Med Chem, 2003).

Series [1] addresses T1, MAP kinase p38 (Homo sapiens, UniProt O15264+Q15759+Q16539+P53778). Description: Inhibitory activity against induction of IL-1-beta release in PBMCs. In kind it is functional.
In series [2] the target is T1, MAP kinase p38. Description: Inhibitory activity against TNF-alpha release in PBM cells. The series is classed as functional, cell-based.
Series [3] addresses T1, MAP kinase p38. Description: Inhibitory activity against mitogen-activated protein kinase p38 at 10 e-4 to 10 e-8 M concentration. The series is classed as protein assay.
Series [4] has as its target CYP2C19 (Homo sapiens, UniProt P33261). Description: Inhibition of Cytochrome P450 2C19 at 10 uM. The series is classed as ADME.
The target in series [5] is CYP3A4 (Homo sapiens, UniProt P08684). Description: Inhibition of Cytochrome P450 3A4 at 10 uM. The series is classed as ADME.
Sequence of CYP3A4 (P08684 whole entry): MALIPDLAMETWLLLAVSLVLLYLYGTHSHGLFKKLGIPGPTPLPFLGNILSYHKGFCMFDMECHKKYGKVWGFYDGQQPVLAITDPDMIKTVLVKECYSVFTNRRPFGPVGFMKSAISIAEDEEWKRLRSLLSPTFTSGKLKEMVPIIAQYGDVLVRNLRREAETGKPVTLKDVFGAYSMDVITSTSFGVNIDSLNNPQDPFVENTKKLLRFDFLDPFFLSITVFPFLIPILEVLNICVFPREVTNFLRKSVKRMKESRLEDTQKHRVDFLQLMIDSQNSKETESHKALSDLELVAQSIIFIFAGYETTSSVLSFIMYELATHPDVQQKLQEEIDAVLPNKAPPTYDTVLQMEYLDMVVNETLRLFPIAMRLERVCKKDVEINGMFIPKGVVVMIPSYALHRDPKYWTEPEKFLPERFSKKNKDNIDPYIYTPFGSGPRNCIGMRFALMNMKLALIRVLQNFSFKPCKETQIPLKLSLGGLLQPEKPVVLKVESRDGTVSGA
The target in series [6] is T2, CYP1A2 (Homo sapiens, UniProt P05177).
T2 sequence (P05177 whole entry): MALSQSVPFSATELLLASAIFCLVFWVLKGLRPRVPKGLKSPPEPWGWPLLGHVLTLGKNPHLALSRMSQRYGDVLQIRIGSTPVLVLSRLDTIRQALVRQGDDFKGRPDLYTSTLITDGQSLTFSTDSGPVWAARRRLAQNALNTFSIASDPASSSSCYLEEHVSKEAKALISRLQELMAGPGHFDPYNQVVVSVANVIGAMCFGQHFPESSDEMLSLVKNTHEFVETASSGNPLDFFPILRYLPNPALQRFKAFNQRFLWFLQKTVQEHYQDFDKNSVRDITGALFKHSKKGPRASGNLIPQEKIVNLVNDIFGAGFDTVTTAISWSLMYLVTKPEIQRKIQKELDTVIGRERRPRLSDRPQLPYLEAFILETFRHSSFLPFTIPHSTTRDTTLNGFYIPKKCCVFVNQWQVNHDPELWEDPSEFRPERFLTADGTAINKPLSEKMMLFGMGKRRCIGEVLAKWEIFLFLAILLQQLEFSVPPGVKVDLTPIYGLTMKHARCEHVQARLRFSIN
Description: Inhibition of Cytochrome P450 1A2 at 10 uM. The series is classed as ADME.

In series [7] the target is CYP2D6 (Homo sapiens, UniProt P10635). Description: Inhibition of Cytochrome P450 2D6 at 10 uM. In kind it is ADME.
Sequence of CYP2D6 (P10635 whole entry): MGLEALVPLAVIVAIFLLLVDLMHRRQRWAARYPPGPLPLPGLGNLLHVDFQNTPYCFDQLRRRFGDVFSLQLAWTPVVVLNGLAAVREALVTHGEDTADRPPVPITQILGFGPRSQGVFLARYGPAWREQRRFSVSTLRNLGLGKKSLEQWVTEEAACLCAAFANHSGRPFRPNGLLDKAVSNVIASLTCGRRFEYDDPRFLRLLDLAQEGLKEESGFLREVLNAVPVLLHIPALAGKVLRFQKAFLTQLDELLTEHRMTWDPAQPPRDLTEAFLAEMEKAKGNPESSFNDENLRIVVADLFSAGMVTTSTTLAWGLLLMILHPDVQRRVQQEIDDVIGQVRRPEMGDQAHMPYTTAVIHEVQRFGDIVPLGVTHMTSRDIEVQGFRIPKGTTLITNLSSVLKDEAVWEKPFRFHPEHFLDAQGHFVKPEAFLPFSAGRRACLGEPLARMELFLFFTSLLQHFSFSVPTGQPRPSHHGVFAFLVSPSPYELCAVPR
Series [8] deals with CYP2C9 (Homo sapiens, UniProt P11712). Description: Inhibition of Cytochrome P450 2C9 at 10 uM. In kind it is ADME.
Sequence of CYP2C9 (P11712 whole entry): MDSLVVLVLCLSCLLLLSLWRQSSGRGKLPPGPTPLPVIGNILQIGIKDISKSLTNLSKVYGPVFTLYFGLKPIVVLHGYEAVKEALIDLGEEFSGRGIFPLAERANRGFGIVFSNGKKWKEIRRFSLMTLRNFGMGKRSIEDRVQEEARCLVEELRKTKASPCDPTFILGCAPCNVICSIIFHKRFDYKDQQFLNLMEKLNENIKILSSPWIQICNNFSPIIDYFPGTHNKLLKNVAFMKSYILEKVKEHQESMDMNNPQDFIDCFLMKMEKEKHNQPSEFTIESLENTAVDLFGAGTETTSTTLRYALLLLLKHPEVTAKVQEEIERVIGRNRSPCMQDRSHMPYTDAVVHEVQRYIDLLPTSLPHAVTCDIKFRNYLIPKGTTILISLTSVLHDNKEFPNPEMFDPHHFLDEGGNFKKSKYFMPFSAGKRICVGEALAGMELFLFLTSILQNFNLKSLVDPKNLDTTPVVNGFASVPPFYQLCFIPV
The target in series [9] is T1, MAP kinase p38. Description: Inhibition of p38-related TNF-alpha release by whole blood cells at 10 e-4 to 10 e-8 M. The series is classed as functional.
Series [10] deals with T1, MAP kinase p38. Description: Inhibition of p38-related IL1-beta release by whole blood cells at 10 e-4 to 10 e-8 M. In kind it is functional.

Sequence of CYP2C19 (P33261 whole entry): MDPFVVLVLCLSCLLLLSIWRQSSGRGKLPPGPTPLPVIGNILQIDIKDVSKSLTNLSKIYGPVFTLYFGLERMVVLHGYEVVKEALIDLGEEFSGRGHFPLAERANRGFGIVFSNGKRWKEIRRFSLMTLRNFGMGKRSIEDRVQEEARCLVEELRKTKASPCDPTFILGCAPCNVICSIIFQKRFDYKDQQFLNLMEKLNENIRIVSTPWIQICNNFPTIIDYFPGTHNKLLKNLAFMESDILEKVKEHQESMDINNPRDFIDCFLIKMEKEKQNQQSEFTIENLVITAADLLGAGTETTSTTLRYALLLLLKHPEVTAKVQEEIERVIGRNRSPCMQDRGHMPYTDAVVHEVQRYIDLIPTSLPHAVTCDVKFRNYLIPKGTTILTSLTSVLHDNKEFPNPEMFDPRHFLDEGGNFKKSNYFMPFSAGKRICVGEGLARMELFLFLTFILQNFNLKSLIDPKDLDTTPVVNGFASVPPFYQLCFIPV

The IC50 is the concentration at which inhibition is half-maximal. Read a high IC50 as a need for much substance. In the case of `CCCn1c(SC)nc(-c2ccc(F)cc2)c1-c1ccnc(NCC)c1`, the half-maximal inhibitory concentration (IC50) in [1] is 150 nM; in series [2] it was 430 nM.

As to `CCCn1c(SC)nc(-c2ccc(F)cc2)c1-c1ccnc(N)c1`, the 50% inhibitory concentration (IC50) in series [1] is 500 nM; in series [2], 5400 nM.

In the case of `CSc1nc(-c2ccc(F)cc2)c(-c2ccnc(NCCc3ccccc3)c2)[nH]1`, the IC50 stood at 240 nM in series [3], 31 nM in series [1] and 350 nM in series [2].

Consider `CSc1nc(-c2ccc(F)cc2)c(-c2ccnc(Nc3ccccc3)c2)[nH]1`, for which the IC50 turned out to be 130 nM in [3], 30 nM in [1] and 340 nM in series [2].

For orientation: inhibition means the relative decrease from the control value, in per cent. Higher therefore signals strong suppression. For `C[S+]([O-])c1ccc(CSc2nc(-c3ccc(F)cc3)c(-c3ccncc3)[nH]2)cc1` (centres undefined), the inhibition at 10 µM in series [4] is 73.6%; in series [5], 87.1%; in series [6], 8.4%; in series [7], 71.8%; in [8] it was 72.7%. In addition, the values for the IC50 in series [1] and in series [2] were 380 nM and 1100 nM, respectively.

Take `COc1ccc(CNc2cc(-c3[nH]c(SC)nc3-c3ccc(F)cc3)ccn2)cc1`: the IC50 came to 790 nM in series [3], 56 nM in [1] and 640 nM in series [2].

As to `Fc1ccc(-c2[nH]c(SCc3ccccc3)nc2-c2ccnc(NCc3ccccc3)c2)cc1`, the IC50 in series [3] turned out to be 1420 nM; in [1], 200 nM; in [2], 3200 nM.

For the compound `COc1cc(-c2[nH]c(SC)nc2-c2ccc(F)cc2)ccn1`, the results for the IC50 in series [1] and in series [2] were 150 nM and 1900 nM, respectively.

In the case of `CSc1nc(-c2ccc(F)cc2)c(-c2ccnc(N)c2)n1C`, the IC50 in [3] was found to be 2300 nM; in [1] it was 270 nM; in [2], 3200 nM.

`Fc1ccc(-c2nc(SCc3ccccc3)[nH]c2-c2ccnc(Cl)c2)cc1`: the IC50 in series [1] was 1800 nM; in series [2], 60000 nM.

As to `C[S+]([O-])c1ccc(CSc2nc(-c3ccc(F)cc3)c(-c3ccnc(Cl)c3)[nH]2)cc1` (centres undefined), the figures for the IC50 in series [1] and in [2] were 2100 nM and 12000 nM, respectively.

Turning to `CCNc1cc(-c2c(-c3ccc(F)cc3)nc(SC)n2C)ccn1`, the IC50 stood at 700 nM in [3]; 5000 nM in [9]; 71 nM in [1]; 2000 nM in series [10]; 600 nM in [2].

For the compound `CSc1nc(-c2ccc(F)cc2)c(-c2ccnc(Cl)c2)[nH]1`, the inhibition at 10 µM in [4] is 41.4%; in series [5], 48.8%; in series [6], 92.6%; in [7] it was 18.6%; in series [8] it was 65%. Moreover, the IC50 was 350 nM in [1] and 2200 nM in series [2].

Regarding `CSc1nc(-c2ccc(F)cc2)c(-c2ccnc(NC(C)=O)c2)n1C`, the inhibition at 10 µM in [4] was 20.3%; in series [5], 16.5%; in series [6], 32.4%; in [7] it was 13.4%; in [8], 27.6%. The IC50 in series [3] was determined as 500 nM; in series [9], 12500 nM; in series [1] it was 75 nM; in series [10], 10800 nM; in series [2], 1100 nM.

Consider `Fc1ccc(-c2nc(SCc3ccccc3)[nH]c2-c2ccnc(F)c2)cc1`, for which the IC50 was 4200 nM in series [3], 2900 nM in series [1] and 40500 nM in [2].

Turning to `CSc1nc(-c2ccc(F)cc2)c(-c2ccnc(F)c2)[nH]1`, the IC50 in series [3] was 3800 nM; in [1], 300 nM; in [2], 2800 nM.

As for `COc1ccc(CNc2cc(-c3[nH]c(SCc4ccccc4)nc3-c3ccc(F)cc3)ccn2)cc1`, the IC50 in series [1] was 180 nM; in series [2], 21000 nM.

With `C[S+]([O-])c1ccc(-c2nc(-c3ccncc3)c(-c3ccc(F)cc3)[nH]2)cc1` (centres undefined) [SB-203580], the inhibition at 10 µM was 85% in series [4]; 61% in series [5]; 61% in series [6]; 67% in [7]; 75% in series [8].

In the case of `CC(Nc1cc(-c2[nH]c(SCc3ccccc3)nc2-c2ccc(F)cc2)ccn1)c1ccccc1` (centres undefined), the figures for the IC50 in series [3], in [1] and in series [2] were 380 nM, 45 nM and 2700 nM, respectively.

Regarding `CCCn1c(SC)nc(-c2ccc(F)cc2)c1-c1ccncc1`, the IC50 amounted to 2200 nM in series [3], 360 nM in series [1] and 1300 nM in [2].

Compound `CSc1nc(-c2ccnc(NC(C)c3ccccc3)c2)c(-c2ccc(F)cc2)n1C` (centres undefined) had an IC50 in series [3] of 27000 nM.

In the case of `CSc1nc(-c2ccnc(O)c2)c(-c2ccc(F)cc2)n1C`, the figures for the IC50 in series [1] and in series [2] were 7200 nM and 31300 nM, respectively.

Take `C[S+]([O-])c1ccc(CSc2nc(-c3ccc(F)cc3)c(-c3ccnc(NCc4ccccc4)c3)[nH]2)cc1` (centres undefined): the IC50 was determined as 1450 nM in series [3], 470 nM in series [1] and 2000 nM in [2].

As to `CSc1nc(-c2ccc(F)cc2)c(-c2ccncc2)[nH]1`, the inhibition at 10 µM was determined as 79.5% in series [4]; 81.4% in series [5]; 43.5% in series [6]; 39.8% in series [7]; 72.4% in series [8]. For the same compound, the IC50 in [3] was 630 nM; in series [9] it was 4200 nM; in series [1] it was 44 nM; in series [10], 1200 nM; in [2], 900 nM.

Regarding `COc1ccc(C(=O)Nc2cc(-c3c(-c4ccc(F)cc4)nc(SC)n3C)ccn2)cc1`, the IC50 in series [1] was found to be 440 nM; in series [2] it was 640 nM.

As to `CCCn1c(SC)nc(-c2ccc(F)cc2)c1-c1ccnc(NC(C)=O)c1`, the IC50 in series [1] is 120 nM; in [2], 490 nM.

Take `CSc1nc(-c2ccc(F)cc2)c(-c2ccnc(NCc3ccc(C)cc3)c2)[nH]1`: the figures for the IC50 in series [3], in [1] and in series [2] were 830 nM, 85 nM and 670 nM, respectively.

As for `CSc1nc(-c2ccc(F)cc2)c(-c2ccnc(NCc3ccccc3)c2)[nH]1`, the IC50 in [3] was determined as 650 nM; in series [1] it was 108 nM; in series [2] it was 630 nM.

Turning to `CSc1nc(-c2ccc(F)cc2)c(-c2ccnc(N(C)Cc3ccccc3)c2)[nH]1`, the IC50 in series [3] is 8700 nM; in series [1] it was 2700 nM; in series [2] it was 4600 nM.

On to `CSc1nc(-c2ccc(F)cc2)c(-c2ccnc(NCc3ccc(Cl)c(Cl)c3)c2)[nH]1`, for which the IC50 turned out to be 700 nM in series [3], 230 nM in series [1] and 720 nM in series [2].

As for `CC(Nc1cc(-c2[nH]c(SCc3ccc([S+](C)[O-])cc3)nc2-c2ccc(F)cc2)ccn1)c1ccccc1` (centres undefined), the IC50 in [3] was 270 nM; in series [1] it was 40 nM; in series [2], 910 nM.

For the compound `CSc1nc(-c2ccc(F)cc2)c(-c2ccnc(NCc3ccccc3)c2)n1C`, the IC50 was 930 nM in [3], 82 nM in series [1] and 580 nM in series [2].

Take `CSc1nc(-c2ccc(F)cc2)c(-c2ccnc(NCc3ccc(Cl)cc3)c2)[nH]1`: the IC50 turned out to be 950 nM in series [3], 150 nM in [1] and 500 nM in series [2].

On to `CSc1nc(-c2ccc(F)cc2)c(-c2ccnc(O)c2)[nH]1`, for which the IC50 is 500 nM in series [1] and 3100 nM in [2].

For the compound `CSc1nc(-c2ccc(F)cc2)c(-c2ccncc2)n1C`, the IC50 in series [3] stood at 2200 nM; in series [9], 5100 nM; in [1] it was 450 nM; in series [10], 1080 nM; in series [2], 2200 nM.

As to `C[S+]([O-])c1ccc(CSc2nc(-c3ccc(F)cc3)c(-c3ccnc(F)c3)[nH]2)cc1` (centres undefined), the IC50 in series [3] was 9300 nM; in [1] it was 2450 nM; in series [2], 6900 nM.

`CSc1nc(-c2ccc(F)cc2)c(-c2ccnc(NC(C)c3ccccc3)c2)[nH]1` (centres undefined): the inhibition at 10 µM in series [4] is 83.5%; in series [5], 79.2%; in series [6], 66.7%; in series [7], 31.1%; in [8], 79%.

`CCNc1cc(-c2c(-c3ccc(F)cc3)nc(SC)n2C2CC(C)(C)NC(C)(C)C2)ccn1`: the IC50 in series [3] is 220 nM; in [9], 11000 nM; in series [1] it was 620 nM; in [10], 2700 nM; in series [2], 2900 nM.
